The results in this text go back to ChEMBL document CHEMBL1149754, “Synthesis and evaluation of a focused library of pyridine dicarbonitriles against prion disease” (Eur J Med Chem, 2008).

A short description of data set [1]: Inhibition of PrPSc formation in mouse SMB cells at 10 uM relative to control. Type of data set: functional.
The target of data set [2] is Major prion protein (Homo sapiens) (UniProt P04156). The data set is described as follows: Binding affinity to human prion protein by surface plasmon resonance assay. In general terms: SPR reads the build-up and loss of mass on a sensor chip optically.
The target in data set [3] is Major prion protein (Mus musculus) (UniProt P04925). The data set is described as follows: Binding affinity to mouse prion protein by surface plasmon resonance assay.
The nature of data set [4]: Inhibition of PrPSc formation in mouse SMB cells at 5 uM relative to control. Type of data set: functional.
A short description of data set [5]: Toxicity against mouse SMB cells after 5 days by MTT assay. The class given is cell-based. To be noted: 120 h. (Tetrazolium dyes change colour on reduction, which living cells bring about.)
Data set [6] can be described thus: Inhibition of PrPSc formation in mouse SMB cells. The class given is functional, cell-based.
Data set [7] in a line: Inhibition of PrPSc formation in mouse SMB cells at 0.05 uM relative to control. Type of data set: functional.
Data set [8] can be described thus: Inhibition of PrPSc formation in mouse SMB cells at 7.5 uM relative to control. Type of data set: functional.
Data set [9] is described as follows: Toxicity against mouse SMB cells at 10 uM after 5 days by MTT assay. The class given is cell-based. To be noted: 120 h.
Data set [10] in a line: Inhibition of PrPSc formation in mouse SMB cells at 1 uM relative to control. Type of data set: functional.

Major prion protein (Mus musculus), sequence (P04925 whole entry): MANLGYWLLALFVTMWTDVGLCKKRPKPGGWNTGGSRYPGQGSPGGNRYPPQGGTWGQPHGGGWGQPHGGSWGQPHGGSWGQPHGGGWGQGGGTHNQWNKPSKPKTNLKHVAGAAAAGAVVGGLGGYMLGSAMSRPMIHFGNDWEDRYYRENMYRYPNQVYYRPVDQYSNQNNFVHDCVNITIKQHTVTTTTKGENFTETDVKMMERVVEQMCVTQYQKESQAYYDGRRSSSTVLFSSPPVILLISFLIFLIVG

For orientation: inhibition means the drop in the measured response relative to a control, in per cent. `COC(=O)c1ccc(Sc2nc(N)c(C#N)c(-c3ccco3)c2C#N)cc1`: the inhibition at 10 µM in [1] was 69%.
Take `COC(=O)c1cccc(Sc2nc(N)c(C#N)c(-c3ccco3)c2C#N)c1`: the RUmax in data set [2] was found to be 26.9%; in [3], 2.2%. Besides, in [1], the inhibition at 10 µM was found to be 69%.
In the case of `N#Cc1c(N)nc(Sc2ccc(Cl)cc2)c(C#N)c1-c1ccc2c(c1)OCO2`, in data set [1], the inhibition at 10 µM was 67%.
With `N#Cc1c(N)nc(Sc2cccc(O)c2)c(C#N)c1-c1ccc(Cl)cc1`, in data set [1], the inhibition at 10 µM turned out to be 73%.
Regarding `COC(=O)c1ccc(-c2c(C#N)c(N)nc(SCc3ccccc3)c2C#N)cc1`, the RUmax was 9.3% in [2] and 0% in [3]. Further, the inhibition at 10 µM in data set [1] was found to be 107%.
As to `N#Cc1c(N)nc(SCc2ccccc2)c(C#N)c1-c1ccc2c(c1)OCCO2`, the inhibition at 10 µM in [1] stood at 94%.
With `N#Cc1c(N)nc(SCc2ccccc2)c(C#N)c1-c1cccs1`, the RUmax was found to be 55.5% in data set [2] and 52.6% in [3]. In addition, in data set [1], the inhibition at 10 µM came to 81%.
Regarding `COC(=O)c1ccc(-c2c(C#N)c(N)nc(Sc3cccc(Cl)c3)c2C#N)cc1`, the inhibition at 5 µM in data set [4] is 46%.
Take `N#Cc1c(N)nc(Sc2ccc(Cl)cc2)c(C#N)c1-c1ccco1`: the values for the RUmax in data set [2] and in data set [3] were 37% and 44.8%, respectively. Also, in data set [1], the inhibition at 10 µM came to 73%.
For `COC(=O)c1ccc(-c2c(C#N)c(N)nc(Sc3ccccc3O)c2C#N)cc1`, the RUmax in data set [2] turned out to be 5.7%; in data set [3] it was 0%. Besides, the inhibition at 10 µM in data set [1] amounted to 72%.
With `N#Cc1c(N)nc(Sc2ccccc2)c(C#N)c1-c1ccc2c(c1)OCO2`, the inhibition at 10 µM in data set [1] is 86%.
`N#Cc1c(N)nc(Sc2ccccc2O)c(C#N)c1-c1ccc(Cl)cc1`: the RUmax in data set [2] was 9.1%; in [3] it was 0%. Also, the inhibition at 10 µM in [1] came to 76%.
For `COC(=O)c1ccc(Sc2nc(N)c(C#N)c(-c3cccs3)c2C#N)cc1`, the inhibition at 10 µM in data set [1] turned out to be 90%.
Turning to `COC(=O)c1cccc(Sc2nc(N)c(C#N)c(-c3cccc(O)c3)c2C#N)c1`, the inhibition at 10 µM in data set [1] was 123%.
Take `N#Cc1c(N)nc(Sc2ccc(O)cc2)c(C#N)c1-c1cccs1`: in data set [1], the inhibition at 10 µM stood at 86%.
With `COC(=O)c1cccc(Sc2nc(N)c(C#N)c(-c3cccs3)c2C#N)c1`, the inhibition at 10 µM in data set [1] was 87%.
As for `COC(=O)c1ccc(Sc2nc(N)c(C#N)c(-c3ccc(Cl)cc3)c2C#N)cc1`, the Activity result in data set [5] is “Toxic”.
For the molecule `COC(=O)c1ccc(-c2c(C#N)c(N)nc(Sc3ccc(Cl)cc3)c2C#N)cc1`, the RUmax came out at 10.6% in [2] and 2.4% in [3]. The inhibition at 10 µM in [1] came out at 73%.
The EC50 is the concentration that produces a half-maximal response. Lower therefore signals greater potency. With `N#Cc1c(N)nc(Sc2ccc(Cl)cc2)c(C#N)c1-c1cccc(O)c1`, the RUmax in data set [2] is 15.7%; in data set [3], 8.9%. The molecule also had a 50% effective concentration (EC50) in [6] of 3000 nM.
For `COC(=O)c1ccc(Sc2nc(N)c(C#N)c(-c3ccc4c(c3)OCCO4)c2C#N)cc1`, the RUmax worked out at 6% in data set [2] and 0% in data set [3]. In addition, the inhibition at 0.05 µM in data set [7] is 23%.
`COC(=O)c1ccc(-c2c(C#N)c(N)nc(Sc3cccc(C(=O)OC)c3)c2C#N)cc1` yielded an EC50 in data set [6] of 8000 nM.
Regarding `N#Cc1c(N)nc(SCc2ccccc2)c(C#N)c1-c1cccc(O)c1`, the RUmax is 96.5% in [2] and 112% in data set [3]. Further, the inhibition at 10 µM in data set [1] was determined as 113%.
For `COC(=O)c1cccc(Sc2nc(N)c(C#N)c(-c3ccc4c(c3)OCO4)c2C#N)c1`, in that order: 156%, 70.4% and 75%.
As to `N#Cc1c(N)nc(Sc2ccc(O)cc2)c(C#N)c1-c1ccco1`, the RUmax in [2] came to 21.9%; in data set [3], 19.6%. Moreover, the inhibition at 0.05 µM in [7] is 24%.
With `COC(=O)c1ccc(Sc2nc(N)c(C#N)c(-c3ccc(C(=O)OC)cc3)c2C#N)cc1`, in data set [6], the EC50 was 9000 nM.
On to `N#Cc1c(N)nc(Sc2cccc(Cl)c2)c(C#N)c1-c1ccc2c(c1)OCCO2`, for which the RUmax in data set [2] was determined as 11.3%; in [3] it was 4.3%. In data set [6], this molecule came in with an EC50 of 2500 nM.
As for `N#Cc1c(N)nc(Sc2ccc(Cl)cc2)c(C#N)c1-c1cccs1`, the values for the RUmax in data set [2] and in data set [3] were 8.8% and 0%, respectively. In addition, the midpoint of the response in data set [6], the EC50, lay at 3000 nM.
Turning to `N#Cc1c(N)nc(Sc2cccc(O)c2)c(C#N)c1-c1ccc2c(c1)OCO2`, the RUmax turned out to be 250% in data set [2] and 138% in data set [3]. For the same molecule, the inhibition at 10 µM in data set [1] turned out to be 75%.
As for `N#Cc1c(N)nc(Sc2cccc(Cl)c2)c(C#N)c1-c1ccc(Cl)cc1`, the inhibition at 10 µM in [1] was determined as 71%.
In the case of `N#Cc1c(N)nc(Sc2cccc(Cl)c2)c(C#N)c1-c1cccs1`, the RUmax was 124% in data set [2] and 72.2% in data set [3]. In [1], the inhibition at 10 µM amounted to 84%.
Take `N#Cc1c(N)nc(Sc2ccc(Cl)cc2)c(C#N)c1-c1ccc(Cl)cc1`: the RUmax in data set [2] was determined as 19.3%; in data set [3] it was 1.6%. Moreover, the inhibition at 10 µM in [1] was 72%.
As to `COC(=O)c1ccc(Sc2nc(N)c(C#N)c(-c3cccc(O)c3)c2C#N)cc1`, the inhibition at 10 µM in data set [1] was 70%.
Consider `N#Cc1c(N)nc(Sc2ccc(Cl)cc2)c(C#N)c1-c1ccc2c(c1)OCCO2`, for which the inhibition at 10 µM in data set [1] is 68%.
In the case of `N#Cc1c(N)nc(Sc2cccc(O)c2)c(C#N)c1-c1ccc2c(c1)OCCO2`, the inhibition at 10 µM in data set [1] was found to be 86%.
`N#Cc1c(N)nc(Sc2cccc(Cl)c2)c(C#N)c1-c1ccco1`: the inhibition at 10 µM in data set [1] stood at 94%.
For `COC(=O)c1ccc(-c2c(C#N)c(N)nc(Sc3cccc(O)c3)c2C#N)cc1`, the results for the RUmax in [2] and in data set [3] were 8.4% and 0%, respectively. For the same molecule, the inhibition at 10 µM in data set [1] came out at 77%.
As to `COC(=O)c1ccc(-c2c(C#N)c(N)nc(Sc3ccc(O)cc3)c2C#N)cc1`, the inhibition at 7.5 µM in data set [8] came to 45%.
Consider `N#Cc1c(N)nc(Sc2cccc(Cl)c2)c(C#N)c1-c1ccc2c(c1)OCO2`, for which the RUmax in data set [2] worked out at 78.6%; in data set [3], 10.5%. The inhibition at 10 µM in [1] came out at 96%.
For `N#Cc1c(N)nc(SCc2ccccc2)c(C#N)c1-c1ccco1`, the inhibition at 10 µM in [1] was determined as 111%.
As for `COC(=O)c1cccc(Sc2nc(N)c(C#N)c(-c3ccc4c(c3)OCCO4)c2C#N)c1`, in [7], the inhibition at 0.05 µM worked out at 44%.
On to `N#Cc1c(N)nc(Sc2cccc(O)c2)c(C#N)c1-c1cccc(O)c1`, for which the inhibition at 5 µM in [4] is 36%. Also, the Activity result in [9] was “Toxic”.
On to `N#Cc1c(N)nc(Sc2ccccc2)c(C#N)c1-c1ccc2c(c1)OCCO2`, for which the RUmax in [2] is 27.9%; in [3] it was 0%. The inhibition at 10 µM in data set [1] worked out at 61%.
On to `N#Cc1c(N)nc(Sc2ccc(O)cc2)c(C#N)c1-c1ccc2c(c1)OCO2`, for which, in [1], the inhibition at 10 µM stood at 82%.
In the case of `N#Cc1c(N)nc(Sc2ccc(O)cc2)c(C#N)c1-c1ccc2c(c1)OCCO2`, the Activity result in data set [5] is listed as “Toxic”.
Consider `N#Cc1c(N)nc(Sc2ccc(O)cc2)c(C#N)c1-c1ccc(Cl)cc1`, for which the inhibition at 10 µM in data set [1] came to 90%.
Regarding `N#Cc1c(N)nc(Sc2ccccc2O)c(C#N)c1-c1cccs1`, the RUmax in data set [2] worked out at 16.9%; in data set [3], 6.1%. For the same molecule, in [1], the inhibition at 10 µM came out at 65%.
Regarding `N#Cc1c(N)nc(Sc2cccc(Cl)c2)c(C#N)c1-c1cccc(O)c1`, in data set [4], the inhibition at 5 µM amounted to 36%. Moreover, in data set [9], the Activity result is recorded as “Toxic”.
For the molecule `N#Cc1c(N)nc(SCc2ccccc2)c(C#N)c1-c1ccc2c(c1)OCO2`, the inhibition at 10 µM in data set [1] came out at 79%.
Consider `N#Cc1c(N)nc(Sc2cccc(O)c2)c(C#N)c1-c1cccs1`, for which the inhibition at 10 µM in [1] stood at 77%.
For `N#Cc1c(N)nc(Sc2ccccc2O)c(C#N)c1-c1ccc2c(c1)OCCO2`, the RUmax in data set [2] worked out at 13.6%; in [3], 4.9%. In data set [1], the inhibition at 10 µM was 89%.
Take `COC(=O)c1cccc(Sc2nc(N)c(C#N)c(-c3ccc(Cl)cc3)c2C#N)c1`: the results for the RUmax in data set [2] and in data set [3] were 6.2% and 0%, respectively. In data set [10], the inhibition at 1 µM stood at 63%.
Regarding `N#Cc1c(N)nc(Sc2ccc(O)cc2)c(C#N)c1-c1cccc(O)c1`, the inhibition at 10 µM in data set [1] worked out at 85%.
For the molecule `N#Cc1c(N)nc(SCc2ccccc2)c(C#N)c1-c1ccc(Cl)cc1`, the RUmax in data set [2] stood at 8.6%; in data set [3], 0%. In addition, the inhibition at 10 µM in data set [1] was 92%.
